According to patent US11510899B2, “RTX toxin production inhibitor and composition for treating symptom of vibrio infection by using same” (priority 2018, dated 2022):

Key:
[1] = system: Vibrio cholerae; test: Hemolytic activity of Vibrio cholerae supernatant on horse blood agar; conditions: 20 μM, 37° C., 24 hours
Procedure: Vibrio cholerae supernatant when treated with DMSO was dotted in horse blood agar medium and cultured at 37° C. for 24 hours.

[2] = In-vivo toxicity of CM2660 injected alone; conditions: subcutaneous, ICR female mice
Procedure: In order to determine whether or not CM2660 also decreases the virulence of Vibrio vulnificus in vivo using 7-week-old ICR female mice, Vibrio vulnificus cultured at A600=0.5 at 30° C. was prepared. This was mixed with DMSO (10%) or CM2660 (1.4 mg/kg of mouse body weight) and the resulting mixture was subcutaneously injected into the back of mice anesthetized with isoflurane. In addition, only CM2660 was injected subcutaneously in order to determine the in-vivo toxicity of CM2660 (FIG. 22). FIG. 22 is a graph showing the results of observation of the expression of in-vivo toxicity of Vibrio vulnificus after injecting CM2660 into mice.

[3] = system: HlyU; test: Amount of HlyU protein in cells of Vibrio vulnificus; assay type: cell-based; conditions: various concentrations, added at A600=0.2, harvested at A600=0.5, vs 2% DMSO
Procedure: In order to determine the mechanism by which the HlyU inhibitor CM2660 inhibited the activity of HlyU, Vibrio vulnificus was cultured at 30° C. and treated with various concentrations of CM2660 at A600=0.2. […] Then, the cell solution was centrifuged at A600=0.5, indicating the time when the intracellular amount of HlyU was maximized, and only the cell portion (pellet) was recovered. The recovered cells were chemically lysed to determine the amount of HlyU in each sample (FIG. 9).

[4] = system: exsA, vp1668, vopQ, vopS and vopR; test: qRT-PCR of exsA and T3SS-1 genes in Vibrio parahaemolyticus; assay type: cell-based; conditions: 20 μM, DMEM, vs 2% DMSO
Source text: In V. parahaemolyticus, HlyU is known to activate the gene expression of the master transcriptional regulator, exsA of type III secretion system-1 (T3SS-1), which causes cytotoxicity. In order to determine whether or not CM2660 reduces the expression of the exsA gene by inhibiting HlyU of V. parahaemolyticus, virulence gene expression of V. parahaemolyticus was investigated using the same method as in (2) of Experimental Example 1.
In order to induce the T3SS-1 gene expression of Vibrio parahaemolyticus, Vibrio parahaemolyticus was cultured in Dulbecco's Modified Eagle Medium (DMEM) medium.
Meanwhile, since ExsA activates the expression of the T3SS-1 gene of Vibrio parahaemolyticus, T3SS-1 gene expression was detected using the same sample to determine whether or not the expression of exsA leads to a decrease in T3SS-1 gene expression (FIG. 24).

[5] = molecular target: T1, HlyU (Vibrio vulnificus, UniProt A0A3Q0L222); test: Vibrio reporter strain, pKK1305 (PrtxA-lux, activated by HlyU) in wild-type V. vulnificus; assay type: cell-based; conditions: Compound Group I; HlyU activity (RLU, DMSO = 100%), 30° C.
T1 sequence (A0A3Q0L222 1-98): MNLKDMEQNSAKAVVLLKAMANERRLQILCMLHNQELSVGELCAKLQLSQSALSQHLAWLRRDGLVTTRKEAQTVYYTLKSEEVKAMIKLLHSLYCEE
Procedure: Meanwhile, verification experiments using the Vibrio reporter strain were also conducted so as to exclude false positive results. It was identified that the effect of the compound was not limited only to E. coli using Vibrio vulnificus, each having the reporter plasmid (pZW1608) inhibited by HlyU, which was used for the E. coli reporter strain, and the plasmid (pKK1305) in which the promoter of the rtxA gene activated by HlyU is cloned in front of the bioluminescence operon.
The constructed wild-type Vibrio reporter strain was treated with sample compounds and cultured at 30° C., and cell growth and luminescence were measured in the same manner as the E. coli strain screening (FIG. 3 and FIG. 4).
In order to identify whether or not a specific structure of CM2660 has a significant effect on HlyU inhibition, the effect of HlyU inhibition by the compound CM2660 and derivatives thereof, “Compound Group I” (FIG. 5) was verified. For the purpose, the pKK1305 plasmid prepared in Example 1 was conjugated to the wild-type Vibrio vulnificus, and the Vibrio reporter strain (pKK1305 in wild-type V. vulnificus) thus produced was treated with various concentrations of the derivative compounds.
While culturing at 30° C., the growth of the reporter strain and the degree of bioluminescence thereof were measured in the same manner as in Example 1, and the RLU was calculated. The RLU of the DMSO-treated control group was expressed as 100% HlyU activity. HlyU activity was plotted according to the concentration of the derivative compound, and EC50 (half maximal effective concentration) was calculated using GraphPad Prism 7.0 (GraphPad Software, San Diego, Calif.) (FIG. 6, Table 2).

[6] = system: hlyA and tlh; test: qRT-PCR of hemolytic protein genes in Vibrio cholerae; conditions: 20 μM, A600=0.5, vs 2% DMSO
[7] = system: Vibrio alginolyticus; test: Cytotoxicity of Vibrio alginolyticus; assay type: cell-based; conditions: CM2660 at different concentrations
[8] = system: exsA, va11668, vopQ, vopS and vopR; test: qRT-PCR of exsA and T3SS genes in Vibrio alginolyticus; assay type: cell-based; conditions: 20 μM, A600=0.5, vs 2% DMSO
Procedure: Vibrio alginolyticus is also a pathogenic Vibrio bacterium that has T3SS and is cytotoxic, similar to Vibrio parahaemolyticus. In order to determine the toxin inhibition effect of CM2660 in Vibrio alginolyticus, Vibrio alginolyticus was cultured in TSB (tryptic soy broth) medium supplemented with 1% NaCl.

[9] = molecular target: T1, HlyU; test: Electrophoretic mobility shift assay (EMSA), HlyU binding to rtxA promoter DNA
Procedure: In order to investigate the effect of CM2660 on the DNA-binding capability of the HlyU protein, electrophoretic mobility shift assay (EMSA) experiments were performed using DNA at the known HlyU-binding rtxA promoter site.
The promoter site of the rtxA gene was amplified by PCR using ^32P-labeled primer, PrtxA-R (5′-[…]-3′) and unlabeled primer PrtxA-F (5′-[…]-3′). This DNA probe was reacted with 50 nM or 100 nM HlyU, 100 μM CM2660 or DMSO in reaction buffer (10 mM Tris-Cl, 50 mM KCl, 5 mM MgCl2, 0.75 mM DTT and 5% glycerol, 0.1 μg poly(dl-dC)) at 25° C. for 30 minutes.
The DNA-HlyU complex was electrophoresed on a polyacrylamide gel and phosphoimaged through Typhoon FLA7000 to determine the band position (FIG. 15, FIG. 16).

O=C(C#Cc1ccccc1)Nc1scc2c1c(=O)oc1ccccc12 [CM2660, N-(4-oxo-4H-thieno[3,4-c]chromen-3-yl)-3-phenylprop-2-ynamide]
hemolytic activity of Vibrio cholerae (clear zone) [1]: reduced | in-vivo toxicity (survival after CM2660 alone) [2]: did not show in-vivo toxicity | amount of HlyU in the cells [3]: no significant difference | exsA mRNA level [4]: significantly decreased | vopQ mRNA level [4]: decreased significantly | vopR mRNA level [4]: decreased significantly | vopS mRNA level [4]: decreased significantly | vp1668 mRNA level [4]: decreased significantly | EC50 [5]: 30.9 µM | hlyA mRNA level [6]: significantly reduced | tlh mRNA level [6]: significantly reduced | cytotoxicity of Vibrio alginolyticus [7]: reduced in a concentration-dependent manner | exsA mRNA level [8]: significantly reduced | va11668 mRNA level [8]: significantly reduced | vopQ mRNA level [8]: significantly reduced | vopR mRNA level [8]: significantly reduced | vopS mRNA level [8]: significantly reduced | DNA-binding capability of HlyU ([9]; 100 μM compound, 50 nM or 100 nM HlyU, 25° C., 30 minutes): significantly decreased | DNA-binding capability of HlyU, concentration dependence ([9]; CM2660 at different concentrations): decrease became greater as the concentration of CM2660 increased
